What was measured:
Format in all cases: in vivo
[1] = system: velvetleaf (Abutilon theophrasti); test: Test G Pre-Emergence Protocol; settings: Abutilon theophrasti, pre-emergence, 312 h, evaluated after 13 days; for pest or weed control at 15.625 g/ha: 15.625 g ai/ha; for pest or weed control at 15.625 g/ha / pest or weed control at 250 g/ha: read-out: Velvetleaf damage rating (100=total damage to plant; 0=no damage to plant); for pest or weed control at 62.5 g/ha: 62.5 g ai/ha, 100=total damage to plant, 0=no damage to plant, read-out: plant damage rating, Velvetleaf; for pest or weed control at 250 g/ha: 250 g ai/ha
Summary of the method: (§1)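 Seeds were sown in standard soil and kept one day in a glasshouse (24/16° C day/night, 14 h light, 65% humidity), then sprayed with compound in acetone/water (50:50) containing 0.5% Tween 20 at 15.625, 62.5 or 250 g/ha. Damage was scored after 13 days (0 = none, 100 = total).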

[2] = system: redroot pigweed (Amaranthus retroflexus); test: Test G Pre-Emergence Protocol; settings: Amaranthus retroflexus, pre-emergence, 312 h, evaluated after 13 days; for pest or weed control at 15.625 g/ha: 15.625 g ai/ha; for pest or weed control at 15.625 g/ha / pest or weed control at 250 g/ha: read-out: Pigweed, Redroot damage rating (100=total damage to plant; 0=no damage to plant); for pest or weed control at 62.5 g/ha: 62.5 g ai/ha, 100=total damage to plant, 0=no damage to plant, read-out: plant damage rating, Pigweed, Redroot; for pest or weed control at 250 g/ha: 250 g ai/ha
Summary of the method: as §1

[3] = system: barnyardgrass (Echinochloa crus-galli); test: Test G Pre-Emergence Protocol; settings: Echinochloa crus-galli, pre-emergence, 312 h, evaluated after 13 days; for pest or weed control at 15.625 g/ha: 15.625 g ai/ha, read-out: Barnyard grass damage rating (100=total damage to plant; 0=no damage to plant); for pest or weed control at 62.5 g/ha: 62.5 g ai/ha, 100=total damage to plant, 0=no damage to plant, read-out: plant damage rating, Barnyardgrass; for pest or weed control at 250 g/ha: 250 g ai/ha, read-out: Barnyardgrass damage rating (100=total damage to plant; 0=no damage to plant)
Summary of the method: as §1

corn (Zea mays) [4] = test: Test G Pre-Emergence Protocol; settings: Zea mays, pre-emergence, 312 h, evaluated after 13 days; for plant injury at 15.625 g/ha: 15.625 g ai/ha; for plant injury at 15.625 g/ha / plant injury at 250 g/ha: read-out: Corn damage rating (100=total damage to plant; 0=no damage to plant); for plant injury at 62.5 g/ha: 62.5 g ai/ha, 100=total damage to plant, 0=no damage to plant, read-out: plant damage rating, Corn; for plant injury at 250 g/ha: 250 g ai/ha
Summary of the method: as §1

[5] = system: ivy-leaved morning glory (Ipomoea hederacea); test: Test G Pre-Emergence Protocol; settings: Ipomoea, pre-emergence, 312 h, evaluated after 13 days; for pest or weed control at 15.625 g/ha: 15.625 g ai/ha, read-out: Morning-glory, Ivy-leaved damage rating (100=total damage to plant; 0=no damage to plant); for pest or weed control at 62.5 g/ha: 62.5 g ai/ha, 100=total damage to plant, 0=no damage to plant, read-out: plant damage rating, Morningglory, Ivy-leaved; for pest or weed control at 250 g/ha: 250 g ai/ha, read-out: Morningglory, Ivy-leaved damage rating (100=total damage to plant; 0=no damage to plant)
Summary of the method: as §1

[6] = system: giant foxtail (Setaria faberi); test: Test G Pre-Emergence Protocol; settings: Setaria faberi, pre-emergence, 312 h, evaluated after 13 days; for pest or weed control at 15.625 g/ha: 15.625 g ai/ha; for pest or weed control at 15.625 g/ha / pest or weed control at 250 g/ha: read-out: Foxtail, Giant damage rating (100=total damage to plant; 0=no damage to plant); for pest or weed control at 62.5 g/ha: 62.5 g ai/ha, 100=total damage to plant, 0=no damage to plant, read-out: plant damage rating, Foxtail, Giant; for pest or weed control at 250 g/ha: 250 g ai/ha
Summary of the method: as §1

[7] = system: velvetleaf (Abutilon theophrasti); test: Test G Post-Emergence Protocol; settings: Abutilon theophrasti, post-emergence, 312 h; for pest or weed control at 15.625 g/ha: 15.625 g ai/ha, evaluated after 13 days (100=total damage to plant; 0=no damage to plant), read-out: Velvetleaf damage rating; for pest or weed control at 62.5 g/ha: 62.5 g ai/ha, read-out: Velvetleaf damage rating (100=total damage to plant; 0=no damage to plant); for pest or weed control at 62.5 g/ha / pest or weed control at 250 g/ha: evaluated after 13 days; for pest or weed control at 250 g/ha: 250 g ai/ha, read-out: damage to plant, Velvetleaf (100=total damage to plant; 0=no damage to plant)
Summary of the method: (§2)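 Foliar application was made 8 days after sowing, using an aqueous spray of the active in acetone/water (50:50) with 0.5% Tween 20, at doses of 15.625, 62.5 or 250 g/ha. Injury was assessed 13 days later, where 100 meant the plant was fully damaged.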

[8] = system: redroot pigweed (Amaranthus retroflexus); test: Test G Post-Emergence Protocol; settings: Amaranthus retroflexus, post-emergence, 312 h; for pest or weed control at 15.625 g/ha: 15.625 g ai/ha, evaluated after 13 days (100=total damage to plant; 0=no damage to plant), read-out: Pigweed, Redroot damage rating; for pest or weed control at 62.5 g/ha: 62.5 g ai/ha, read-out: Pigweed, Redroot damage rating (100=total damage to plant; 0=no damage to plant); for pest or weed control at 62.5 g/ha / pest or weed control at 250 g/ha: evaluated after 13 days; for pest or weed control at 250 g/ha: 250 g ai/ha, read-out: damage to plant, Pigweed, Redroot (100=total damage to plant; 0=no damage to plant)
Summary of the method: as §2

[9] = system: barnyardgrass (Echinochloa crus-galli); test: Test G Post-Emergence Protocol; settings: Echinochloa crus-galli, post-emergence, 312 h; for pest or weed control at 15.625 g/ha: 15.625 g ai/ha, evaluated after 13 days (100=total damage to plant; 0=no damage to plant), read-out: Barnyardgrass damage rating; for pest or weed control at 62.5 g/ha: 62.5 g ai/ha, read-out: Barnyardgrass damage rating (100=total damage to plant; 0=no damage to plant); for pest or weed control at 62.5 g/ha / pest or weed control at 250 g/ha: evaluated after 13 days; for pest or weed control at 250 g/ha: 250 g ai/ha, read-out: damage to plant, Barnyardgrass (100=total damage to plant; 0=no damage to plant)
Summary of the method: as §2

corn (Zea mays) [10] = test: Test G Post-Emergence Protocol; settings: Zea mays, post-emergence, 312 h; for plant injury at 15.625 g/ha: 15.625 g ai/ha, evaluated after 13 days (100=total damage to plant; 0=no damage to plant), read-out: Corn damage rating; for plant injury at 62.5 g/ha: 62.5 g ai/ha, read-out: Corn damage rating (100=total damage to plant; 0=no damage to plant); for plant injury at 62.5 g/ha / plant injury at 250 g/ha: evaluated after 13 days; for plant injury at 250 g/ha: 250 g ai/ha, read-out: damage to plant, Corn (100=total damage to plant; 0=no damage to plant)
Summary of the method: as §2

[11] = system: ivy-leaved morning glory (Ipomoea hederacea); test: Test G Post-Emergence Protocol; settings: Ipomoea, post-emergence, 312 h; for pest or weed control at 15.625 g/ha: 15.625 g ai/ha, evaluated after 13 days (100=total damage to plant; 0=no damage to plant), read-out: Morningglory, Ivy-leaved damage rating; for pest or weed control at 62.5 g/ha: 62.5 g ai/ha, read-out: Morningglory, Ivy-leaved damage rating (100=total damage to plant; 0=no damage to plant); for pest or weed control at 62.5 g/ha / pest or weed control at 250 g/ha: evaluated after 13 days; for pest or weed control at 250 g/ha: 250 g ai/ha, read-out: damage to plant, Morningglory, Ivy-leaved (100=total damage to plant; 0=no damage to plant)
Summary of the method: as §2

[12] = system: giant foxtail (Setaria faberi); test: Test G Post-Emergence Protocol; settings: Setaria faberi, post-emergence, 312 h; for pest or weed control at 15.625 g/ha: 15.625 g ai/ha, evaluated after 13 days (100=total damage to plant; 0=no damage to plant), read-out: Foxtail, Giant damage rating; for pest or weed control at 62.5 g/ha: 62.5 g ai/ha, read-out: Foxtail, Giant damage rating (100=total damage to plant; 0=no damage to plant); for pest or weed control at 62.5 g/ha / pest or weed control at 250 g/ha: evaluated after 13 days; for pest or weed control at 250 g/ha: 250 g ai/ha, read-out: damage to plant, Foxtail, Giant (100=total damage to plant; 0=no damage to plant)
Summary of the method: as §2

SMILES	pest or weed control at 15.625 g/ha [1] [%]	pest or weed control at 62.5 g/ha [1] [%]	pest or weed control at 250 g/ha [1] [%]	pest or weed control at 15.625 g/ha [2] [%]	pest or weed control at 62.5 g/ha [2] [%]	pest or weed control at 250 g/ha [2] [%]	pest or weed control at 15.625 g/ha [3] [%]	pest or weed control at 62.5 g/ha [3] [%]	pest or weed control at 250 g/ha [3] [%]	plant injury at 15.625 g/ha (corn (Zea mays) [4]) [%]	plant injury at 62.5 g/ha (corn (Zea mays) [4]) [%]	plant injury at 250 g/ha (corn (Zea mays) [4]) [%]	pest or weed control at 15.625 g/ha [5] [%]	pest or weed control at 62.5 g/ha [5] [%]	pest or weed control at 250 g/ha [5] [%]	pest or weed control at 15.625 g/ha [6] [%]	pest or weed control at 62.5 g/ha [6] [%]	pest or weed control at 250 g/ha [6] [%]	pest or weed control at 15.625 g/ha [7] [%]	pest or weed control at 62.5 g/ha [7] [%]	also measured
Cc1ccc(NC(=O)[C@@H]2C(=O)N(C)C[C@H]2c2ccc(C(F)(F)F)cc2)c(Cl)c1 (racemic) [Compound 1590]	0	0	0	0	0	0	0	0	60	0	0	0	0	0	0	0	50	80	0	0	pest or weed control at 250 g/ha [7]: 0%; pest or weed control at 15.625 g/ha [8]: 0%; pest or weed control at 62.5 g/ha [8]: 0%; pest or weed control at 250 g/ha [8]: 0%; pest or weed control at 15.625 g/ha [9]: 0%; pest or weed control at 62.5 g/ha [9]: 0%; pest or weed control at 250 g/ha [9]: 30%; plant injury at 15.625 g/ha (corn (Zea mays) [10]): 0%; plant injury at 62.5 g/ha (corn (Zea mays) [10]): 0%; plant injury at 250 g/ha (corn (Zea mays) [10]): 0%; pest or weed control at 15.625 g/ha [11]: 0%; pest or weed control at 62.5 g/ha [11]: 20%; pest or weed control at 250 g/ha [11]: 30%; pest or weed control at 15.625 g/ha [12]: 0%; pest or weed control at 62.5 g/ha [12]: 70%; pest or weed control at 250 g/ha [12]: 80%
Cc1n[nH]cc1NC(=O)[C@@H]1C(=O)N(C)C[C@H]1c1ccc(C(F)(F)F)cc1 (racemic) [Compound 1634]	0	0	0	0	0	0	0	0	0	0	0	0	0	0	0	0	0	0	0	0	pest or weed control at 250 g/ha [7]: 0%; pest or weed control at 15.625 g/ha [8]: 0%; pest or weed control at 62.5 g/ha [8]: 0%; pest or weed control at 250 g/ha [8]: 0%; pest or weed control at 15.625 g/ha [9]: 0%; pest or weed control at 62.5 g/ha [9]: 0%; pest or weed control at 250 g/ha [9]: 0%; plant injury at 15.625 g/ha (corn (Zea mays) [10]): 0%; plant injury at 62.5 g/ha (corn (Zea mays) [10]): 0%; plant injury at 250 g/ha (corn (Zea mays) [10]): 0%; pest or weed control at 15.625 g/ha [11]: 0%; pest or weed control at 62.5 g/ha [11]: 0%; pest or weed control at 250 g/ha [11]: 0%; pest or weed control at 15.625 g/ha [12]: 0%; pest or weed control at 62.5 g/ha [12]: 0%; pest or weed control at 250 g/ha [12]: 20%
CCc1nccc(NC(=O)[C@@H]2C(=O)N(C)C[C@H]2c2ccc(C(F)(F)F)cc2)c1Cl (racemic) [Compound 1538]	0	0	0	0	0	0	0	30	50	0	0	0	0	0	70	0	20	60	0	0	pest or weed control at 250 g/ha [7]: 0%; pest or weed control at 15.625 g/ha [8]: 0%; pest or weed control at 62.5 g/ha [8]: 0%; pest or weed control at 250 g/ha [8]: 0%; pest or weed control at 15.625 g/ha [9]: 0%; pest or weed control at 62.5 g/ha [9]: 0%; pest or weed control at 250 g/ha [9]: 10%; plant injury at 15.625 g/ha (corn (Zea mays) [10]): 0%; plant injury at 62.5 g/ha (corn (Zea mays) [10]): 0%; plant injury at 250 g/ha (corn (Zea mays) [10]): 10%; pest or weed control at 15.625 g/ha [11]: 0%; pest or weed control at 62.5 g/ha [11]: 0%; pest or weed control at 250 g/ha [11]: 0%; pest or weed control at 15.625 g/ha [12]: 10%; pest or weed control at 62.5 g/ha [12]: 30%; pest or weed control at 250 g/ha [12]: 50%
